Earlier results in patent US20110177038A1, “Inhibition of Tumor Growth via Peroxiredoxin 3” (THE JOHNS HOPKINS UNIVERSITY, priority 2002, published 2011).

System: MCF7/ADR cells
Settings: free radical scavenger

CC(=O)C(=O)[O-].[Na+] [sodium pyruvate]
Inhibition of apoptosis after glucose withdrawal: sufficient to inhibit apoptosis
